Assay results as given in ChEMBL document CHEMBL4041521, “3-Aroylindoles display antitumor activity in vitro and in vivo: Effects of N1-substituents on biological activity” (Eur J Med Chem, 2017).
Active and inactive are the calls of the source. The calls are words filed in the database; no cut-off is given here.

Assays:
Histone deacetylase 8 = biological target: T1, Histone deacetylase 8 (Homo sapiens, UniProt Q9BY41); experiment: Inhibition of recombinant human HDAC8 using fluorogenic substrate by fluorescence assay
T1 sequence (Q9BY41 whole entry): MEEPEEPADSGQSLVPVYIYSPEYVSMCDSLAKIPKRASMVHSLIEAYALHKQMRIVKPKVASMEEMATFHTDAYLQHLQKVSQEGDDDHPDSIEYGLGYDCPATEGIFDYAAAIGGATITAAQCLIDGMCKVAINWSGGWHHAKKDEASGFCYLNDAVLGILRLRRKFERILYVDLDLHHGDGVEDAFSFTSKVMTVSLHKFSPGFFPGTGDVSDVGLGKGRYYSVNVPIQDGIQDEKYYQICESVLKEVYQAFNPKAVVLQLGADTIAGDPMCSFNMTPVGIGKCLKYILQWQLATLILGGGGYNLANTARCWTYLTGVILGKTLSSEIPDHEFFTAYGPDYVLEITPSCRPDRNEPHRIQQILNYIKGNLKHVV

Histone deacetylase 5 = Histone deacetylase 5 (Homo sapiens, UniProt Q9UQL6); experiment: Inhibition of recombinant human HDAC5 using fluorogenic substrate by fluorescence assay
[1] = Inhibition of HDAC activity in human HeLa cell nuclear extract using fluorometric substrate measured after 30 mins by fluorescence assay; type: cell-based
Histone deacetylase 2 = Histone deacetylase 2 (Homo sapiens, UniProt Q92769); experiment: Inhibition of recombinant human HDAC2 using fluorogenic substrate by fluorescence assay
Histone deacetylase 3 = Histone deacetylase 3 (Homo sapiens, UniProt O15379); experiment: Inhibition of recombinant human HDAC3 using fluorogenic substrate by fluorescence assay
Sus scrofa = species: Sus scrofa; experiment: Inhibition of purified porcine tubulin polymerization at 1 to 10 uM measured every 1 min for 30 mins
[2] = biological target: T2, Polyamine deacetylase HDAC10 (Homo sapiens, UniProt Q969S8); experiment: Inhibition of recombinant human HDAC10 using fluorogenic substrate by fluorescence assay
T2 sequence (Q969S8 whole entry): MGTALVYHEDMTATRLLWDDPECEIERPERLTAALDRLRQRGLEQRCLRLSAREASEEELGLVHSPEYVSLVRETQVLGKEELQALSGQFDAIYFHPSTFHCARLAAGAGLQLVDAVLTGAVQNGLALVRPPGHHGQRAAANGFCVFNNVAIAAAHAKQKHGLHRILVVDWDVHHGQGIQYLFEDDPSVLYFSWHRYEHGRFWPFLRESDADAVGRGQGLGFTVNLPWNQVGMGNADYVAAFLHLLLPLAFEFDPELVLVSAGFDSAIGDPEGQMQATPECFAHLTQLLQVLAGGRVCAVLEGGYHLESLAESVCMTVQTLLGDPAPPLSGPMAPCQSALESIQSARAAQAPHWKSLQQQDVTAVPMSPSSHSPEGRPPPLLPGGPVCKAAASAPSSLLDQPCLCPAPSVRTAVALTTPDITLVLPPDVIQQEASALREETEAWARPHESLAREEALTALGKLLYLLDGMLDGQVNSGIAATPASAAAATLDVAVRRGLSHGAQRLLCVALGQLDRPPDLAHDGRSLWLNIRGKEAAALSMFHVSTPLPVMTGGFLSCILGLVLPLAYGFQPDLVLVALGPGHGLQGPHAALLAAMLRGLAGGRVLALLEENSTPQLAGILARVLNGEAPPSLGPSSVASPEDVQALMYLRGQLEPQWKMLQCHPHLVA

HCT-116 = experiment: Antiproliferative activity against human HCT116 cells measured after 48 hrs by sulforhodamine-B assay; type: functional, cell-based; details: HCT-116, 48 h
A549 = experiment: Antiproliferative activity against human A549 cells measured after 48 hrs by sulforhodamine-B assay; type: functional, cell-based; details: A549, 48 h
[3] = biological target: T3, Protein deacetylase HDAC6 (Homo sapiens, UniProt Q9UBN7); experiment: Inhibition of recombinant human HDAC6 using fluorogenic substrate by fluorescence assay
T3 sequence (Q9UBN7 whole entry): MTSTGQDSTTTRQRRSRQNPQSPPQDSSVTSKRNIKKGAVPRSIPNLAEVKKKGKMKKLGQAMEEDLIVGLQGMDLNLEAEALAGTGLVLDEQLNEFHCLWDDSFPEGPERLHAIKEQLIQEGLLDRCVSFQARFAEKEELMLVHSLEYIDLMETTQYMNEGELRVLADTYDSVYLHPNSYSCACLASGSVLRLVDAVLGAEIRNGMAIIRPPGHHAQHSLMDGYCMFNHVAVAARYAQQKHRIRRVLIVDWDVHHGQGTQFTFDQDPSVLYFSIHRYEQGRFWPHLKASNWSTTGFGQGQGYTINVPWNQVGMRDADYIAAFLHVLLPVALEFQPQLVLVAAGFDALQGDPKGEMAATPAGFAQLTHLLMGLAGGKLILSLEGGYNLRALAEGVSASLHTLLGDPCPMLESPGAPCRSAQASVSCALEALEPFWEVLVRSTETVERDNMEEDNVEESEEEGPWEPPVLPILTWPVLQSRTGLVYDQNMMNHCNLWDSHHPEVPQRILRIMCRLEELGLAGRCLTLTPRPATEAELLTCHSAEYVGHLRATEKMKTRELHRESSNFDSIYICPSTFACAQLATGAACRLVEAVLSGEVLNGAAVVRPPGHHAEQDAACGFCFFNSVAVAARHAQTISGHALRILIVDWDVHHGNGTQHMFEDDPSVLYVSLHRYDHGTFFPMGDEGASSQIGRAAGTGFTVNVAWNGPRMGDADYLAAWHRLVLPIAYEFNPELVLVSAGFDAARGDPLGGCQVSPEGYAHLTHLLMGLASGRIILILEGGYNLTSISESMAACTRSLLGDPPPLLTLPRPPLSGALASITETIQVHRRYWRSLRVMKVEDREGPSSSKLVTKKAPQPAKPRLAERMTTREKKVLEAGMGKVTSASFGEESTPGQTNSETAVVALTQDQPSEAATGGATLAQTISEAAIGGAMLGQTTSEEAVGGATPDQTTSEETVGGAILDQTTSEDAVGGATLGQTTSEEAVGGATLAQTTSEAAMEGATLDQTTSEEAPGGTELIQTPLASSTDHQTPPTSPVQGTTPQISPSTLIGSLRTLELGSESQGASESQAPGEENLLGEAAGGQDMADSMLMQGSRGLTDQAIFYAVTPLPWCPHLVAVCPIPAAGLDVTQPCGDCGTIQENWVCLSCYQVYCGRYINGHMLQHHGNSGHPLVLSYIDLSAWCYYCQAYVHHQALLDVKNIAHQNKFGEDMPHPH

PC-3 = experiment: Antiproliferative activity against human PC3 cells measured after 48 hrs by sulforhodamine-B assay; type: functional, cell-based; details: PC-3, 48 h
Homo sapiens = species: Homo sapiens; experiment: Inhibition of tubulin polymerization in human PC3 cells assessed as […] in MPM2 expression at 0.01 to 10 uM by Western blot analysis; type: cell-based
Histone deacetylase 9 = Histone deacetylase 9 (Homo sapiens, UniProt Q9UKV0); experiment: Inhibition of recombinant human HDAC9 using fluorogenic substrate by fluorescence assay
Chain of Histone deacetylase 9 (Q9UKV0 whole entry): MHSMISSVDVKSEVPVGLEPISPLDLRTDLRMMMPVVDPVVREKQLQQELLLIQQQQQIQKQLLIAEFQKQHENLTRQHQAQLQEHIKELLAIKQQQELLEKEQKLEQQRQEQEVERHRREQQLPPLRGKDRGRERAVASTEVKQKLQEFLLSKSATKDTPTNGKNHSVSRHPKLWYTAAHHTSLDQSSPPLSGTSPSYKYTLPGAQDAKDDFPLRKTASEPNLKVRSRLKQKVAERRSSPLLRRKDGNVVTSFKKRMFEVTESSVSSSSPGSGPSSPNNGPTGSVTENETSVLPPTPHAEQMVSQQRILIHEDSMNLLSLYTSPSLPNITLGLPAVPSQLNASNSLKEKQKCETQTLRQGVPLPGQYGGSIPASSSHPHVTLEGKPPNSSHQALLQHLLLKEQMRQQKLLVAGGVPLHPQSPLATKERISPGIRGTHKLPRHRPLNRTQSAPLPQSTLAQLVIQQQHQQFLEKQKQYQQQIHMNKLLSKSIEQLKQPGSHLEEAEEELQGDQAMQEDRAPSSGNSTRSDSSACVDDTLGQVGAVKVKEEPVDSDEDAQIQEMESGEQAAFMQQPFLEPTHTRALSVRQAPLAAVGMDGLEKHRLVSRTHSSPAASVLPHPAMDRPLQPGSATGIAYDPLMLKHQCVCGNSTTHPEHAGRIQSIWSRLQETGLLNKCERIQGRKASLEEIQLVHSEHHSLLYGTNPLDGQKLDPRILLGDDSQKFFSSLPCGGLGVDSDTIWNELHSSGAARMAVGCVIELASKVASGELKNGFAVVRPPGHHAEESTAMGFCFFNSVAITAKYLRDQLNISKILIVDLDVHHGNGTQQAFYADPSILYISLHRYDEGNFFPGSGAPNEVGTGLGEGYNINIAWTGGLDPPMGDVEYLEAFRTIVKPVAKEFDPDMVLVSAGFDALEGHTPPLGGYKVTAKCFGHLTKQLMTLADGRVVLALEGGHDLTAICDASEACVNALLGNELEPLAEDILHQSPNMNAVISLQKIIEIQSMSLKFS

Chain of Histone deacetylase 2 (Q92769 whole entry): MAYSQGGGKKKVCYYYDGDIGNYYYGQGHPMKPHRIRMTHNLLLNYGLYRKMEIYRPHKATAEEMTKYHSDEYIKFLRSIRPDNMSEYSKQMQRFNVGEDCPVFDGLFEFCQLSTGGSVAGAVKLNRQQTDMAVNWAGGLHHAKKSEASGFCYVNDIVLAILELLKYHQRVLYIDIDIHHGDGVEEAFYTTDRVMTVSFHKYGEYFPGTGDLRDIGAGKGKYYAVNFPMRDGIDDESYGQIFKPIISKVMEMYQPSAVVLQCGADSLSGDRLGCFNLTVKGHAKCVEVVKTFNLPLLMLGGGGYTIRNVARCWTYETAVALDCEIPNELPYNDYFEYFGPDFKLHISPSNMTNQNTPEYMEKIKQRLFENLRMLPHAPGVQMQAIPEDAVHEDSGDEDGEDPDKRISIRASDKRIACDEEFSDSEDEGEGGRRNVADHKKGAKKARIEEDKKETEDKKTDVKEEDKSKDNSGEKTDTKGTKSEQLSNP
Chain of Histone deacetylase 5 (Q9UQL6 whole entry): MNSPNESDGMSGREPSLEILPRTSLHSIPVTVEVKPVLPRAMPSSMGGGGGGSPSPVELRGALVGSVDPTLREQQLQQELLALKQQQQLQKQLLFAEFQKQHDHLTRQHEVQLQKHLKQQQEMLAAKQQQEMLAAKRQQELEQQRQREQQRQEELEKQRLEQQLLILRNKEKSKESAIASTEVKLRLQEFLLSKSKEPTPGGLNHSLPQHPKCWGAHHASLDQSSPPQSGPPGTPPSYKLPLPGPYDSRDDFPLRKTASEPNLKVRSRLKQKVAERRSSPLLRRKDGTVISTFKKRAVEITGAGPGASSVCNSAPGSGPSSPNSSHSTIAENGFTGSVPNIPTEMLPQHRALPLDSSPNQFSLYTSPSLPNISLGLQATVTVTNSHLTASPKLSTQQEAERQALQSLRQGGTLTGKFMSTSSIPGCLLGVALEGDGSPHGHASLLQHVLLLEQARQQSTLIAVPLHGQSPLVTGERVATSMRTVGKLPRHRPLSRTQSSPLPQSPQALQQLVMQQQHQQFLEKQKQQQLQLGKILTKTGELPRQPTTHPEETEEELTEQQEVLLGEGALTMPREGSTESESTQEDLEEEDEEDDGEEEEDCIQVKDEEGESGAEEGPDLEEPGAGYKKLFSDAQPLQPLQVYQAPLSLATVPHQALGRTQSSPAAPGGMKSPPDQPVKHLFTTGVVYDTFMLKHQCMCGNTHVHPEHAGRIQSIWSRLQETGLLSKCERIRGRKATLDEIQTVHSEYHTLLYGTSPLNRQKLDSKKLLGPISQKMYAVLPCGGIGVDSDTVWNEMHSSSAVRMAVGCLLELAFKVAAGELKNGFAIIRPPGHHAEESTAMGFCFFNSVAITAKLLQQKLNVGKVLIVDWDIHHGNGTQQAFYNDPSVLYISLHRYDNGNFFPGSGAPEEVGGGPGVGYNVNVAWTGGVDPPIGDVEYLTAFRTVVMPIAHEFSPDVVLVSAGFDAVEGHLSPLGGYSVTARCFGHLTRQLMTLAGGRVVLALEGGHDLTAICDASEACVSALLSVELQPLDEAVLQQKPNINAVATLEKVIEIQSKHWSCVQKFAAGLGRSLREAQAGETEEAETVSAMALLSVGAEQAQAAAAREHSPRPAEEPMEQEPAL
Chain of Histone deacetylase 3 (O15379 whole entry): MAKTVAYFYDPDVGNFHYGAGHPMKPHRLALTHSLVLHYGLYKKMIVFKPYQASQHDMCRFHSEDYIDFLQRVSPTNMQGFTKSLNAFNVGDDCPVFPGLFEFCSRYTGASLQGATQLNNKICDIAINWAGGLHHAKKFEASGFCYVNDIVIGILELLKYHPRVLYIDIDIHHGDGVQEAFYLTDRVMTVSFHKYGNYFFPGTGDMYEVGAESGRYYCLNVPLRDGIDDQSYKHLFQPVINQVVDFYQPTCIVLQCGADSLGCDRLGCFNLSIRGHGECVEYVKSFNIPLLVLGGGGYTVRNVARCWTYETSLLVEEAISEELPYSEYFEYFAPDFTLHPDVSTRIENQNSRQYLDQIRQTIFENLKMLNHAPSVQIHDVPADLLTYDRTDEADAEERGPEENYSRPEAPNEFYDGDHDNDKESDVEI

Row | SMILES | IC50 (Histone deacetylase 8) [nM] | IC50 (Histone deacetylase 5) [nM] | IC50 [1] [nM] | IC50 (Histone deacetylase 2) [nM] | IC50 (Histone deacetylase 3; read-out: IC50) [nM] | inhibition (Sus scrofa) | IC50 ([2]; read-out: IC50) [nM] | IC50 (HCT-116) [nM] | IC50 (A549) [nM] | IC50 [3] [nM] | IC50 (PC-3) [nM] | inhibition (Homo sapiens) | IC50 (Histone deacetylase 9; read-out: IC50) [nM] | IC50 (Histone deacetylase 3) | IC50 [2] | IC50 (Histone deacetylase 9)
1 | COc1ccc2c(C(=O)c3cc(OC)c(OC)c(OC)c3)cn(Cc3ccc(C(=O)NO)cc3)c2c1 | 390 | 1030 | 611 | 1410 | 6530 | Active | 8230 | 485 | 206 | 64.5 | 179 | Active | 1680 |  |  | 
2 | COc1ccc2c(C(=O)c3cc(OC)c(OC)c(OC)c3)cn(S(=O)(=O)c3cccc(/C=C/C(=O)NO)c3)c2c1 | 16200 | 356000 | 135 | 3220 |  | Active |  | 43.9 | 72.5 | 275 | 33.1 | Active |  | Not Active | Not Active | Not Active
